Reference: the NIST ThermoML archive (doi:10.1021/je0496995)
± gives the expanded uncertainty stated by the source.

What was measured:
[1] = Liquid; for viscosity: 101.3 kPa, Capillary tube (Ostwald / Ubbelohde) method; for mass density: 101.33 kPa, Pycnometric method
[2] = wn = mass fraction of the nth substance listed; settings: 101.3 kPa, Liquid; for viscosity: Capillary tube (Ostwald / Ubbelohde) method; for mass density: Pycnometric method
[3] = mn = molality of the nth substance listed, in mol/kg; settings: Liquid, m2 = 0; for viscosity: 101.3 kPa, Capillary tube (Ostwald / Ubbelohde) method; for mass density: 101.33 kPa, Pycnometric method

Cc1cccnc1 [3-methylpyridine]
[1]
Settings | mass density [kg/m3] | viscosity [mPa·s]
293.15 K | 956 ± 0.5 | 0.9459 ± 0.013
303.15 K | 946.6 ± 0.5 | 0.8318 ± 0.011
313.15 K | 937.7 ± 0.5 | 0.7352 ± 0.0099
323.15 K | 928.3 ± 0.5 | 0.6565 ± 0.0089
333.15 K | 919.3 ± 0.5 | 0.5936 ± 0.0081
343.15 K | 910.3 ± 0.5 | 0.539 ± 0.0073

Cc1cccnc1 [3-methylpyridine] + O
[2]
Settings | mass density, w1 = 0.1 [kg/m3] | mass density, w1 = 0.15 [kg/m3] | viscosity, w2 = 0.1 [mPa·s] | viscosity, w2 = 0.15 [mPa·s]
293.15 K | 997.8 ± 1.1 | 997.5 ± 1.1 | 1.291 ± 0.025 | 1.448 ± 0.03
303.15 K | 994.4 ± 1.1 | 993.7 ± 1.1 | 1.002 ± 0.019 | 1.143 ± 0.027
313.15 K | 990.2 ± 1.1 | 989.2 ± 1.1 | 0.8117 ± 0.015 | 0.9152 ± 0.022
323.15 K | 985.2 ± 1.1 | 983.7 ± 1.1 | 0.6796 ± 0.013 | 0.7673 ± 0.017
333.15 K | 979.6 ± 1.1 | 977.7 ± 1.1 | 0.5794 ± 0.011 | 0.6568 ± 0.015
343.15 K | 973.7 ± 1.1 | 971.7 ± 1.1 | 0.5053 ± 0.0099 | 0.5712 ± 0.012

Cc1cccnc1 [3-methylpyridine] + O=C(O)c1cccnc1
[3]
Settings | mass density [kg/m3] | viscosity [mPa·s]
293.15 K | 956 ± 0.5 | 0.9459 ± 0.013
303.15 K | 946.6 ± 0.5 | 0.8318 ± 0.011
313.15 K | 937.7 ± 0.5 | 0.7352 ± 0.0099
323.15 K | 928.3 ± 0.5 | 0.6565 ± 0.0089
333.15 K | 919.3 ± 0.5 | 0.5936 ± 0.0081
343.15 K | 910.3 ± 0.5 | 0.539 ± 0.0073
